The target in this assay is b-CA-II (bovine carbonic anhydrase II) (Bos taurus, UniProt P00921). As to the kind of experiment: p-nitrophenyl acetate esterase assay, bovine enzyme, absorbance at […] nm. In kind it is biochemical.

In article PMC11892125 (BMC Chemistry, 2025) one finds IC50 data, which are given here for one molecule.

Chain of b-CA-II (bovine carbonic anhydrase II) (P00921 2-260): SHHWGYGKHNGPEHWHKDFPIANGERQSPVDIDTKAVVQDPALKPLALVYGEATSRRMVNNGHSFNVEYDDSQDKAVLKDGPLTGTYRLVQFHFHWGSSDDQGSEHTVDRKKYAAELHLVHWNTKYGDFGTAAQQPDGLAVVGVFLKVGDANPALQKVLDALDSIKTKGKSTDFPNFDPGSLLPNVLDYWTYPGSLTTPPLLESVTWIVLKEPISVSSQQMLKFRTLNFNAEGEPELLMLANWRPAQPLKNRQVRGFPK

By IC50 is commonly meant the midpoint of a concentration-inhibition curve. In turn, `CCCCCCCC1(O)CS/C(=N\C(=O)c2ccc(Br)cc2)N1c1ccccc1-c1ccccc1` (stereo not shown) [compound 5, (Z)-N-(3-([1,1'-biphenyl]-2-yl)-4-heptyl-4-hydroxythiazolidin-2-ylidene)-4-bromobenzamide] yielded an IC50 of 147 ± 30 nM.
